Reference: patent US9109041B2, “Analog compounds of analgesic peptides derived from the venom of crotalus durissus terrificus snakes, their uses, compositions, methods of preparation and purification” (priority 2004, dated 2015)

Assays:
[1] = tested on: hyperalgesia induced by chronic constriction of the sciatic nerve; assay: hyperalgesia induced by chronic constriction of the sciatic nerve (rat paw pressure test); type: in vivo; settings: for pain threshold, FM 24 h: day 14, 24 h after peptide; for pain threshold, FM 48 h: day 14, 48 h after peptide; for pain threshold, FM 72 h: day 14, 72 h after peptide; for pain threshold, FM 96 h: day 14, 96 h after peptide
Description: For the induction of neuropathic pain, surgery was performed in the sciatic nerve, in accordance with the method described by Bennett, G. J and Xie, Y. K. (Pain, 33:87-107, 1988). The animals were anesthetized with halothane. The sciatic nerve was exposed in the middle region of the thigh, moving away the femoral biceps muscle. Close to the trifurcation of the sciatic nerve, 7 mm of distance from the trifurcation, 4 loose ligations were performed (chromed catgut 4-0) around it, distant from each other in approximately 1 mm. The bindings were performed along the nerve, up to 4-5 mm from the initial point. The incision was sutured in layers, using silk suture thread number 4-0.
The test was applied before (BM-basal measurement) and on the 14th day after the surgery, to characterize the development of neuropathic pain.
The results were analyzed by comparing the means of the basal and initial measurements or by comparing the means of the initial and final measurements or, when determined, through the comparison of the means obtained in the different experimental groups.
For this purpose, the animals were treated with CTOP, a specific μ receptor antagonist (20 μg/paw), nor-BNI, a specific κ receptor antagonist (50 μg/paw) or with ICI 174,864, a specific δ receptor antagonist (10 μg/paw). The antagonists were injected, by intraplantar route. The peptide was administered in the dose of 5 μg/kg, orally, immediately before the injection of the opioid antagonists.
The results were analyzed comparing the mean values of the basal and initial measurements, or of the initial and final measurements or, when determined, by comparing the mean values obtained in the different experimental groups (Tables 15 and 16).

[2] = tested on: carrageenin-induced hyperalgesia; assay: rat paw pressure test, carrageenin-induced hyperalgesia; type: in vivo
Description: The antinociceptive effect of the synthetic peptide was evaluated in the inflammatory hyperalgesia induced by carrageenin. […] Saline, administered by the same route was used as control.
As determined in the PGE2 model, the participation of opioid receptors in the antinociceptive effect of the peptide SEQ ID NO: 2 in the carrageenin-induced hyperalgesia (Table 10) was investigated. Therefore, the animals were treated with CTOP, a specific μ receptor antagonist (20 μg/paw), nor-BNI, a specific κ receptor antagonist (50 μg/paw) or with ICI 174.864, a specific δ receptor antagonist (10 μg/paw), injected by i.pl. route concomitantly to carrageenin. Peptide was administered in the dose of 1 μg/kg, orally, immediately before carrageenin.

[3] = oral route, results 1 hour after treatment, reversal of hyperalgesia, CurveExpert 1.3

Substance: Xaa-Phe-Ser-Pro-Glu-Asn-Cys-Gln-Gly-Glu-Ser-Gln-Pro-Cys [SEQ ID NO: 2]
- pain threshold, IM ([1]; 0.0016 μg/kg p.o., day 14 after surgery, before peptide): 33 ± 1.22 g
- pain threshold, BM ([1]; 0.008 μg/kg p.o., before surgery): 74 ± 1.87 g
- pain threshold, FM 1 h ([1]; 0.008 μg/kg p.o., day 14, 1 h after peptide): 34 ± 1.00 g
- pain threshold, FM 3 h ([1]; 0.008 μg/kg p.o., day 14, 3 h after peptide): 30 ± 1.58 g
- pain threshold, FM 24 h ([1]; 0.008 μg/kg p.o.): 30 ± 0.00 g
- pain threshold, FM 48 h ([1]; 0.008 μg/kg p.o.): 33 ± 1.22 g
- pain threshold, FM 72 h ([1]; 0.008 μg/kg p.o.): 31 ± 1.00 g
- pain threshold, FM 96 h ([1]; 0.008 μg/kg p.o.): 32 ± 1.22 g
- pain threshold, IM ([1]; 0.008 μg/kg p.o., day 14 after surgery, before peptide): 33 ± 1.22 g
- pain threshold, BM ([1]; 0.04 μg/kg p.o., before surgery): 71 ± 1.00 g
- pain threshold, FM 1 h ([1]; 0.04 μg/kg p.o., day 14, 1 h after peptide): 29 ± 1.00 g
- pain threshold, FM 3 h ([1]; 0.04 μg/kg p.o., day 14, 3 h after peptide): 30 ± 0.00 g
- pain threshold, FM 24 h ([1]; 0.04 μg/kg p.o.): 31 ± 1.00 g
- pain threshold, FM 48 h ([1]; 0.04 μg/kg p.o.): 33 ± 1.22 g
- pain threshold, FM 72 h ([1]; 0.04 μg/kg p.o.): 33 ± 0.00 g
- pain threshold, FM 96 h ([1]; 0.04 μg/kg p.o.): 33 ± 1.22 g
- pain threshold, IM ([1]; 0.04 μg/kg p.o., day 14 after surgery, before peptide): 33 ± 1.22 g
- pain threshold, BM ([1]; 0.2 μg/kg p.o., before surgery): 73 ± 1.22 g
- pain threshold, FM 1 h ([1]; 0.2 μg/kg p.o., day 14, 1 h after peptide): 51 ± 1.87 g
- pain threshold, FM 3 h ([1]; 0.2 μg/kg p.o., day 14, 3 h after peptide): 56 ± 1.87 g
- pain threshold, FM 24 h ([1]; 0.2 μg/kg p.o.): 52 ± 1.22 g
- pain threshold, FM 48 h ([1]; 0.2 μg/kg p.o.): 54 ± 1.00 g
- pain threshold, FM 72 h ([1]; 0.2 μg/kg p.o.): 53 ± 1.22 g
- pain threshold, FM 96 h ([1]; 0.2 μg/kg p.o.): 33 ± 1.22 g
- pain threshold, IM ([1]; 0.2 μg/kg p.o., day 14 after surgery, before peptide): 31 ± 1.00 g
- pain threshold, BM ([1]; 1 μg/kg p.o., before surgery): 72 ± 1.22 g
- pain threshold, FM 1 h ([1]; 1 μg/kg p.o., day 14, 1 h after peptide): 73 ± 1.22 g
- pain threshold, FM 3 h ([1]; 1 μg/kg p.o., day 14, 3 h after peptide): 73 ± 1.22 g
- pain threshold, FM 24 h ([1]; 1 μg/kg p.o.): 71 ± 1.00 g
- pain threshold, FM 48 h ([1]; 1 μg/kg p.o.): 74 ± 1.00 g
- pain threshold, FM 72 h ([1]; 1 μg/kg p.o.): 71 ± 1.00 g
- pain threshold, FM 96 h ([1]; 1 μg/kg p.o.): 33 ± 1.22 g
- pain threshold, IM ([1]; 1 μg/kg p.o., day 14 after surgery, before peptide): 31 ± 1.00 g
- pain threshold, FM 1 h ([1]; 5 μg/kg p.o. + CTOP 20 μg/paw i.pl., 1 h after peptide): 105 ± 4.18 g
- pain threshold, MF 3 h ([1]; 5 μg/kg p.o. + CTOP 20 μg/paw i.pl., 3 h after peptide): 112 ± 5.83 g
- pain threshold, BM ([1]; 5 μg/kg p.o. + CTOP 20 μg/paw i.pl., before surgery): 72 ± 1.22 g
- pain threshold, IM ([1]; 5 μg/kg p.o. + CTOP 20 μg/paw i.pl., day 14, before peptide): 41 ± 1.88 g
- pain threshold, FM 1 h ([1]; 5 μg/kg p.o. + ICI 174,864 10 μg/paw i.pl., 1 h after peptide): 35 ± 1.87 g
- pain threshold, MF 3 h ([1]; 5 μg/kg p.o. + ICI 174,864 10 μg/paw i.pl., 3 h after peptide): 37 ± 2.55 g
- pain threshold, BM ([1]; 5 μg/kg p.o. + ICI 174,864 10 μg/paw i.pl., before surgery): 72 ± 1.22 g
- pain threshold, IM ([1]; 5 μg/kg p.o. + ICI 174,864 10 μg/paw i.pl., day 14, before peptide): 34 ± 1.87 g
- pain threshold, FM 1 h ([1]; 5 μg/kg p.o. + nor-BNI 50 μg/paw i.pl., 1 h after peptide): 69 ± 1.87 g
- pain threshold, MF 3 h ([1]; 5 μg/kg p.o. + nor-BNI 50 μg/paw i.pl., 3 h after peptide): 75 ± 1.58 g
- pain threshold, BM ([1]; 5 μg/kg p.o. + nor-BNI 50 μg/paw i.pl., before surgery): 73 ± 1.22 g
- pain threshold, IM ([1]; 5 μg/kg p.o. + nor-BNI 50 μg/paw i.pl., day 14, before peptide): 35 ± 1.58 g
- pain threshold, BM ([1]; 5 μg/kg p.o., before surgery (Table 11)): 72 ± 0.79 g
- pain threshold, BM ([1]; 5 μg/kg p.o., before surgery (Table 15)): 72 ± 1.44 g
- pain threshold, FM 1 h ([1]; 5 μg/kg p.o., day 14, 1 h after peptide (Table 11)): 100 ± 4.42 g
- pain threshold, FM 1 h ([1]; 5 μg/kg p.o., day 14, 1 h after peptide (Table 15)): 114 ± 6.57 g
- pain threshold, FM 3 h ([1]; 5 μg/kg p.o., day 14, 3 h after peptide (Table 11)): 98 ± 4.28 g
- pain threshold, MF 3 h ([1]; 5 μg/kg p.o., day 14, 3 h after peptide (Table 15)): 121 ± 5.91 g
- pain threshold, FM 24 h ([1]; 5 μg/kg p.o.): 99 ± 3.51 g
- pain threshold, FM 48 h ([1]; 5 μg/kg p.o.): 93 ± 3.00 g
- pain threshold, FM 72 h ([1]; 5 μg/kg p.o.): 86 ± 2.45 g
- pain threshold, FM 96 h ([1]; 5 μg/kg p.o.): 33 ± 1.18 g
- pain threshold, IM ([1]; 5 μg/kg p.o., day 14, before peptide (Table 15)): 35 ± 2.04 g
- pain threshold, IM ([1]; 5 μg/kg p.o., day 14 after surgery, before peptide (Table 11)): 32 ± 0.79 g
- duration of the anti-hyperalgesic effect ([1]; one single administration p.o.): up to 3 days
- 50% effective dose [1, 3]: 0.2055 µg/kg
- 60% effective dose [1, 3]: 0.2832 µg/kg
- 90% effective dose [1, 3]: 0.5747 µg/kg
- effect of the mu opioid receptor antagonist on the anti-hyperalgesic effect of the peptide ([1]; peptide 5 μg/kg p.o., CTOP 20 μg/paw i.pl.): did not alter
- effect of the delta opioid receptor antagonist on the anti-hyperalgesic effect of the peptide ([1]; peptide 5 μg/kg p.o., ICI 174,864 10 μg/paw i.pl.): blocked
- effect of the kappa opioid receptor antagonist on the anti-hyperalgesic effect of the peptide ([1]; peptide 5 μg/kg p.o., nor-BNI 50 μg/paw i.pl.): partially inhibited
- pain threshold, FM (g) ± S.E.M ([2]; 1 μg/kg p.o. + CTOP 20 μg/paw i.pl. with carrageenin, after carrageenin): 126 ± 2.92 g
- pain threshold, IM (g) ± S.E.M. ([2]; 1 μg/kg p.o. + CTOP 20 μg/paw i.pl., before carrageenin): 76 ± 1.87 g
- pain threshold, FM (g) ± S.E.M ([2]; 1 μg/kg p.o. + ICI174,864 10 μg/paw i.pl. with carrageenin, after carrageenin): 128 ± 2.00 g
- pain threshold, IM (g) ± S.E.M. ([2]; 1 μg/kg p.o. + ICI174,864 10 μg/paw i.pl., before carrageenin): 77 ± 1.22 g
- pain threshold, FM (g) ± S.E.M ([2]; 1 μg/kg p.o. + nor-BNI 50 μg/paw i.pl. with carrageenin, after carrageenin): 56 ± 1.00 g
- pain threshold, IM (g) ± S.E.M. ([2]; 1 μg/kg p.o. + nor-BNI 50 μg/paw i.pl., before carrageenin): 78 ± 2.00 g
- pain threshold, FM (g) ± S.E.M ([2]; 1 μg/kg p.o., 3 h after carrageenin 200 μg/paw (Table 9)): 116 ± 1.87 g
- pain threshold, FM (g) ± S.E.M ([2]; 1 μg/kg p.o., after carrageenin (Table 10)): 129 ± 1.87 g
- pain threshold, IM (g) ± S.E.M. ([2]; 1 μg/kg p.o., before carrageenin (Table 9)): 77 ± 2.00 g
- pain threshold, IM (g) ± S.E.M. ([2]; 1 μg/kg p.o., before carrageenin (Table 10)): 77 ± 1.22 g
- opioid receptor antagonist interfering with the antinociceptive effect ([2]; peptide 1 μg/kg p.o., mu, kappa, delta antagonists i.pl.): only kappa opioid receptor antagonist was able to interfere
